Data reported in the NIST ThermoML archive (doi:10.1021/acs.jced.9b00046).
Numbers after ± are expanded uncertainties.

Conditions: 99.6 kPa, Liquid; for viscosity: Capillary tube (Ostwald / Ubbelohde) method; for mass density: Vibrating tube method

CNC(C)=O [N-methylacetamide]
viscosity (308.15 K): 3.488 ± 0.043 mPa·s
mass density (308.15 K): 945.71 ± 1.9 kg/m3
viscosity (313.15 K): 3.073 ± 0.038 mPa·s
mass density (313.15 K): 941.53 ± 1.9 kg/m3
viscosity (318.15 K): 2.723 ± 0.034 mPa·s
mass density (318.15 K): 937.33 ± 1.9 kg/m3
viscosity (323.15 K): 2.438 ± 0.03 mPa·s
mass density (323.15 K): 933.16 ± 1.9 kg/m3
viscosity (328.15 K): 2.194 ± 0.027 mPa·s
mass density (328.15 K): 928.93 ± 1.9 kg/m3
